According to article PMC3057018, “Inhibition of Recombinant D-Amino Acid Oxidase from Trigonopsis variabilis by Salts” (Enzyme Research, 2011):

Tests used:
[1] = target: T1, TvDAAO (recombinant His-tagged D-amino acid oxidase from Trigonopsis variabilis) (Trigonopsis variabilis, UniProt Q99042); assay: DNPH end-point assay of pyruvate at […] nm; assay type: biochemical; set-up: gene DAO1; N-terminal hexahistidine tag, expressed in E. coli mainly as apoenzyme, metal-chelate purified, holoenzyme reconstituted with FAD; settings: FAD added, potassium phosphate pH 8.0, 30 °C
T1 sequence (Q99042 whole entry): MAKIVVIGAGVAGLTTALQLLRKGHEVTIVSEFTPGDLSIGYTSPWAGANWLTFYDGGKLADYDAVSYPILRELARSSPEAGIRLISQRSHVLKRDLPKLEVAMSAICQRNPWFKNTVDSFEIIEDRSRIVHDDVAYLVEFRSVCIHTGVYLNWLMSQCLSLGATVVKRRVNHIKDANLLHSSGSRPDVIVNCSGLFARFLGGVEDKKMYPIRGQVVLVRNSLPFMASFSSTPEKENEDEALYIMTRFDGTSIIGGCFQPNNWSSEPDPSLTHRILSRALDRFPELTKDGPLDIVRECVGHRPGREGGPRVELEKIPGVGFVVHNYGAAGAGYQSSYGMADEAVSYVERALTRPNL

[2] = target: T1, TvDAAO (recombinant His-tagged D-amino acid oxidase from Trigonopsis variabilis); assay: biochemical; set-up: gene DAO1
[3] = target: T1, TvDAAO (recombinant His-tagged D-amino acid oxidase from Trigonopsis variabilis); assay: intrinsic tryptophan fluorescence (excitation […] nm) of reconstituted holoenzyme with NaCl; assay type: binding; set-up: gene DAO1; N-terminal hexahistidine tag, expressed in E. coli mainly as apoenzyme, metal-chelate purified, holoenzyme reconstituted with FAD; settings: 25 °C; FAD dissociation by NaCl followed indirectly; holoenzyme reconstituted with 5-fold FAD; noncovalent

C[C@@H](N)C(=O)O [D-alanine]
DNPH end-point assay of pyruvate at 450 nm [1]: measured the release of α-ketoacid from D-alanine during the reaction

Cl [NaCl]
Ki [2]: 85 mM

Cc1cc2nc3c(=O)[nH]c(=O)nc-3n(C[C@H](O)[C@H](O)[C@H](O)COP(=O)(O)OP(=O)(O)OC[C@H]3O[C@@H](n4cnc5c(N)ncnc54)[C@H](O)[C@@H]3O)c2cc1C [FAD]
intrinsic tryptophan fluorescence (excitation 295 nm) of reconstituted holoenzym [3]: Such an effect may be related to the loss of cofactor FAD
